Data published in patent publication US20040197338A1, “Respiratory syncytial virus” (priority 2001, published 2004).

Assay: Peptide solubility
Format: physicochemical
Conditions: for solubility on resuspension: resuspended at 1 mg/ml, other peptides in water

Row | SMILES | solubility in water / PBS | solubility on resuspension
1 | CC[C@H](C)[C@H](NC(=O)[C@H](CCC(N)=O)NC(=O)[C@@H](NC(=O)[C@H](CCC(=O)O)NC(=O)[C@@H](NC(=O)[C@@H](NC(=O)[C@H](CC(C)C)NC(=O)[C@H](CO)NC(=O)[C@H](C)NC(=O)[C@H](CC(C)C)NC(=O)[C@@H](NC(=O)[C@H](CC(C)C)NC(=O)[C@@H](NC(=O)[C@H](CCC(=O)O)NC(=O)[C@H](Cc1ccccc1)NC(=O)[C@H](CCCCN)NC(=O)[C@H](CCSC)NC(=O)[C@H](CCC(=O)O)NC(=O)[C@H](CCCCN)NC(=O)CN)C(C)C)[C@@H](C)O)[C@@H](C)O)[C@@H](C)O)[C@@H](C)CC)C(=O)O [N8] | solubility problems in water | required 10% (v/v) acetic acid for solubility
2 | CC[C@H](C)[C@H](NC(=O)[C@H](CC(C)C)NC(=O)CNC(=O)[C@@H](NC(=O)[C@H](Cc1ccccc1)NC(=O)[C@H](CCCCN)NC(=O)[C@H](Cc1c[nH]cn1)NC(=O)[C@H](CC(N)=O)NC(=O)[C@H](C)NC(=O)[C@H](CC(=O)O)NC(=O)[C@H](CCC(=O)O)NC(=O)[C@@H](NC(=O)[C@@H](NC(=O)[C@H](CC(C)C)NC(=O)[C@H](CC(C)C)NC(=O)[C@H](CCSC)NC(=O)CNC(=O)[C@H](CS)NC(=O)[C@H](CC(C)C)NC(=O)[C@@H](N)CCCCN)[C@@H](C)CC)[C@@H](C)O)[C@@H](C)O)C(=O)O [peptide N4] | soluble in PBS | 
3 | CC[C@H](C)[C@H](NC(=O)CN)C(=O)N[C@@H](Cc1ccccc1)C(=O)N[C@@H](C)C(=O)NCC(=O)N[C@@H](CC(C)C)C(=O)N[C@@H](Cc1ccccc1)C(=O)N[C@@H](CCSC)C(=O)N[C@@H](CC(N)=O)C(=O)N[C@@H](C)C(=O)N[C@@H](Cc1ccc(O)cc1)C(=O)NCC(=O)N[C@@H](C)C(=O)NCC(=O)N[C@@H](CCC(N)=O)C(=O)N[C@H](C(=O)N[C@@H](CCSC)C(=O)N[C@@H](CC(C)C)C(=O)N[C@@H](CCCNC(=N)N)C(=O)N[C@@H](Cc1c[nH]c2ccccc12)C(=O)O)C(C)C [N17] | solubility problems in water | required 10% (v/v) acetic acid for solubility
